Assay results taken from patent publication US8552011B2, “6-(C2-6alkylseleno)purines and methods for treating neural measles viral infection therewith” (priority 2008, dated 2013).

Key:
[1] = tested on: measles virus strain Halle (MV-H); test: Anti-viral screening, syncytia formation in infected HeLa cells; format: cell-based; details: for reduction of syncytia formation: MV-H infected HeLa cells
Protocol: (§1) Viruses: Two strains of measles virus (MV) were evaluated in this study: 1) strain Edmonston (MV-E), the prototypical lab-adapted strain originally derived from the blood of a human patient in the acute phase of a typical infection, and 2) strain Halle (MV-H), a neurovirulent strain derived from a lymph node biopsy of a human patient with subacute sclerosing panencephalitis. One strain of herpes simplex virus (HSV) was evaluated: HSV-2 (strain G). This strain is a primary isolate derived from an active genital infection.
(§2) Infection conditions: Cells (4×10^4 cells/well) were seeded in 24-well culture plates and pre-treated with ESP for 24 hr prior to infection. Cells were incubated with 100 μl of MV at the indicated MOI for 1 h at 37° C. before conditioned media containing the test compound and 5% FCS was replaced for the assay duration. MV replication was evaluated daily by microscopic analysis until cells were stained with 0.1% cresyl violet dye and scored for cytopathic effects. Similar conditions were employed for HSV-2 with the exception that infections were performed at 35° C. over a test period of 72 h.

[2] = tested on: measles virus strain Edmonston (MV-E); test: as above; format: cell-based
Protocol: as §1, §2

HeLa cells [3] = test: MTT tetrazole reduction assay, acute toxicity; format: cell-based, human; details: 24 h incubation, 65, 10, 1, 0.1, 0.01, 0.001 ng/ml, 0.1% DMSO
Excerpt: (§3) Cells and cell culture: HeLa cells (human cervical carcinoma) were used for these studies. Cells were maintained in DMEM medium supplemented with 10% fetal calf serum (FCS) and antibiotics in a humidified, 5% CO2 environment. Cells were passaged as required by trypsinization.
(§4) Evaluation of toxicity: Acute toxicity was quantified using a standard tetrazole reduction assay as a measure of cell proliferation/viability. Briefly, quadruplicate wells of HeLa cells (1×10^4 cells, 96-well plates) were incubated for 24 h with the ESP or DMSO as a control and the reduction of tetrazolium salt (MTT) to purple formazan by mitochondrial reductases enzymes in viable cells detected as a change in absorbance (λ=500-600 nm). Overt cytotoxicity was also evaluated qualitatively by microscopic analysis over longer exposure periods during the antiviral tests. Toxicity was considered to be evident if cell injury or loss was observed or a reduction in MTT activity of greater than twenty-five percent relative to controls was detected.
(1)—Evaluation of acute toxicity: ESP was assessed by MTT assay as described above using a series of dilutions (w/v): 65, 10, 1, 0.1, 0.01, 0.001 and 0 ng/ml. […] Toxicity was evaluated over a 24 h incubation period, a time period that corresponded to the pre-treatment phase of the anti-viral testing protocol.

HSV-2 (strain G) = test: Anti-HSV screening, plaque formation in infected HeLa cells; format: cell-based, herpes simplex virus; details: HSV-2, MOI 1, 0.1, 0.01, ESP 1, 0.5, 0.25, 0.1 μg/ml, 72 h
Protocol: as §1, §2
(4)—Anti-HSV screening: ESP was evaluated at 1, 0.5. 0.25, 0.1 and 0 μg/ml against HSV-2 at MOI=I, 0.1 and 0.01.

HeLa cells [4] = test: Overt cytotoxicity by microscopic analysis during the antiviral tests; format: cell-based, human; details: for toxic effects: by 72 h PI
Excerpt: as §3, §4, §2

`CC[Se]c1ncnc2[nH]cnc12` [ESP] was tested, and the “reduction of syncytia formation” value ([1]; 0.1 μg/ml ESP) was 25%, the “reduction of syncytia formation” value ([1]; 1 μg/ml ESP) was 66% and the “syncytia formation, treated vs vehicle controls” value ([1]; preliminary screening, MV-H, MOI 1.0, 0.1, 0.01, Day 5 PI) was “a decrease in syncytia formulation was evident”. For the same compound, the “syncytia formation vs untreated controls” value ([2]; anti-MV screening, MOI 1.0, 0.1, 0.01, ESP 5-0.1 ng/ml as printed) was “did not significantly decrease syncytia formation”, the “syncytia formation, treated vs untreated wells” value ([2]; preliminary screening, MOI 1.0, 0.1, 0.01, Day 5 PI) was “syncytia formation did not differ between treated and untreated wells” and the “acute toxicity (MTT assay)” value (HeLa cells [3]) was “toxicity was not observed”. The “viral replication as evidenced by plaque formation, vs vehicle controls” value (HSV-2 (strain G)) was “No difference in viral replication”, the “concentration usable in the absence of toxic effects” value (HeLa cells [4]) was at most 1 µg/mL and the toxic effects (HeLa cells [4]; 2.5 μg/ml) was “toxic effects were observed”. For the same compound, the toxic effects (HeLa cells [4]; 5 μg/ml) was “toxic effects were observed”, the overt cytotoxicity (HeLa cells [4]; 10 μg/ml, 72 h post-infection) was “overt cytotoxicity was observed” and the overt cytotoxicity (HeLa cells [4]; 65 μg/ml, 24 h post-infection) was “overt cytotoxicity was observed”. For the same compound, the “toxicity during pre-treatment phase” value (HeLa cells [4]; 24 h pre-treatment before infection, 65-0.01 μg/ml) was “no toxicity was evident” and the toxicity (HeLa cells [4]; concentrations less than or equal to 1 μg/ml, time-frames approaching one week) was “No toxicity was observed”.
